Laboratory results published in patent publication EP4772505A1, “COMPOUND FOR DEGRADING ANDROGEN RECEPTOR AND MEDICAL USE THEREOF” (Ubix Therapeutics, Inc., priority 2023, dated 2025).
Numbering of substitutions follows the chain as printed. Read-outs that look alike come from different tables or passages of the source.

Experiments:
Androgen Receptor (AR) [1] = target: T1, Androgen Receptor (AR) (Homo sapiens, UniProt P10275, T878A); assay: Measurement of AR protein degradation in LNCaP cells by Western blotting; type: cell-based; settings: read-out: AR degradation in LNCaP cells (%)
T1 construct: endogenous in cells; host or cells: LNCaP
T1 sequence (P10275 1-920 T878A): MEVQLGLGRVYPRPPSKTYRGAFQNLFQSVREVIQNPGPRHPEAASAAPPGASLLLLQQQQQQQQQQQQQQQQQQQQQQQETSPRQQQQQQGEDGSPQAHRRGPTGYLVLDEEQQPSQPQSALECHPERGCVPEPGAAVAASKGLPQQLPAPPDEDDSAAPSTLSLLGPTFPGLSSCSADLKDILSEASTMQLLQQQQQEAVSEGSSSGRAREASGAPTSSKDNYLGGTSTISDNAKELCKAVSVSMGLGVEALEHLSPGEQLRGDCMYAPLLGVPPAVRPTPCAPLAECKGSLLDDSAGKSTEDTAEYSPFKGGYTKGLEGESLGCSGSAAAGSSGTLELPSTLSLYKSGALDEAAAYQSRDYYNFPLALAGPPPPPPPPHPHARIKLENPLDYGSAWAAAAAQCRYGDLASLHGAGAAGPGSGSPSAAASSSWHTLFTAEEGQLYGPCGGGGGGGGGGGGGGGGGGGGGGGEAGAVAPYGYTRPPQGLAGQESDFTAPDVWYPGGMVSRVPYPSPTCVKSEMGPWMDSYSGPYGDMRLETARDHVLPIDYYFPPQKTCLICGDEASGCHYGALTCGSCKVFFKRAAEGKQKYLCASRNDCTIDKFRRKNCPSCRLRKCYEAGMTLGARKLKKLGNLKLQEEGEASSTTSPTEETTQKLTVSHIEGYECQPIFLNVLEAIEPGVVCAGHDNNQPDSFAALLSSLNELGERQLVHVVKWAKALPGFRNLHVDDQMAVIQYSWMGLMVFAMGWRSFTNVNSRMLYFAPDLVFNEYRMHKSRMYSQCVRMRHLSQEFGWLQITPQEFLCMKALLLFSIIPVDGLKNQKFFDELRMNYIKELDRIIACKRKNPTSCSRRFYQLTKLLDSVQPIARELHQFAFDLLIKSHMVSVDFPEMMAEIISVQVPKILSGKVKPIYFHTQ
Procedure: (§1) The amount of AR protein present in LNCaP or VCaP cells was measured after treating them with the synthesized compound. The amount of AR protein was measured using Western blotting. The protocol for the experiments using LNCaP or VCaP cells was as follows.
(§2) [Culture] LNCaP cells were resuspended in RPMI1640 medium + HEPES (Hyclone, SH30255.01), 10% FBS (Hyclone, SV30207.02), and 1% Penicillin-streptomycin (Welgene, LS 202-02). 3 x 10^5 cells/mL were seeded in 12-well plates (1 mL per well) and cultured for 3 days. VCaP cells were resuspended in IMDM MEDIUM (Hyclone, SH30228.01), 20% FBS (Hyclone, SV30207.02), and 1% Penicillin-streptomycin (Welgene, LS 202-02), seeded at 9 x 10^5/mL in 1 mL per 12-well plate, and cultured for 3 days.
(§3) [Compound Treatment] 10 µL of 100x stock (e.g., 0.1, 1, 10 µM) compound solution at the final compound treatment concentration (e.g., 0.001, 0.01, 0.1 µM) was added to each well in 1 mL media, and cells were harvested after 20 hours. For DC50 measurement, 100x stock (0.01, 0.1, 1, 10, 100, 1000 µM) compound solutions at the final compound treatment concentration (0.0001, 0.001, 0.01, 0.1, 1, 10 µM) were used.
(§4) [Cell lysis] The cell pellet was suspended using 1% SDS lysis buffer (50 mM Tris, 1 mM EDTA, 1% SDS, pH 8.0, 0.5 mM PMSF, 1x Protease/Phosphatase inhibitor Cocktail (Cell Signaling Technology, 5872S)), and sonication (70% AMP, 10 cycles (30 sec ON/59 sec OFF)) was performed. After centrifugation at 4°C and 20,000 g for 20 minutes, the cell lysate was obtained and transferred to a new tube.
(§5) [Protein Quantification] A BCA protein assay (SMART™ BCA Protein Assay Kit, iNtRON Biotechnology, 21071) was performed using a 96-well microplate. 5 µL of cell lysate and 5 µL of 1% SDS lysis buffer were added to each well of the 96-well plate, followed by an additional 200 µL of BCA reagent (Reagent A: Reagent B = 50:1). The wells were incubated at 37°C for 30 minutes and cooled to room temperature for 10 minutes. After shaking for 10 seconds, the absorbance was measured at a wavelength of 562 nm. The unknown protein concentration was determined using a BSA standard curve (0, 0.125, 0.25, 0.5, 1, 2 mg/mL). Western blotting samples were prepared by mixing cell lysate, 1% SDS lysis buffer, 4x NuPAGE™ LDS Sample buffer (Invitrogen, NP0008), and 10X NuPAGE™ Sample Reducing Agent (Invitrogen, NP0009) and boiling at 70°C for 10 minutes.
(§6) [Electrophoresis] 10 µg of protein sample was loaded into each well of a NuPAGE™ 4 to 12%, Bis-Tris, 1.0 mm Mini Protein Gel, 15-well, 17-well, or 26-well (Invitrogen, NP0323BOX, NP0329BOX, or WG1403BOX) and electrophoresed for 40 minutes using NuPAGE™MES SDS Running Buffer (Invitrogen, NP0002) at 200 V (constant V).
(§7) [Transfer] Transfer was performed for 15 or 18 minutes using the electrophoresed gel and the Trans-Blot® Turbo™ Transfer Starter System (Bio-RAD, #17001918, Mini Nitrocellulose) at 1.3 A (constant A) and 25 V (limit V). To confirm protein transfer, 15 mL of Ponceau S solution (Sigma, P7170-1L) was used to stain for 1 minute, and then washed to check the degree of transfer.
(§8) [Blocking] The membrane for AR and GAPDH detection was blocked with 5% skim milk/0.2% TBST (Skim milk: BD, 232100/ 20X TBS: Biosesang, TR2008-100-00/ 10% Tween 20 Solution: Bio-RAD, #161-0781) for 45 minutes.
(§9) [Antibodies and Detection] Primary AR antibody (Androgen Receptor: CST, 5153S) was mixed with 5% skim milk/0.2% TBST at a ratio of 1:1,000 and reacted at room temperature for 3 hours or at 4°C overnight. Primary GAPDH antibody (CST, 2118S) was mixed with 5% skim milk/0.2% TBST at a ratio of 1:2,000 and reacted at room temperature for 3 hours or at 4°C overnight. Afterwards, TBST (0.2% Tween 20) was used for washing three times every 5 minutes. Secondary antibody to AR antibody, Anti-rabbit IgG, HRP-linked Antibody (CST, 7074S), was mixed with 5% skim milk/0.2% TBST at a ratio of 1:5,000 and reacted at room temperature for 45 minutes. […]

Androgen Receptor (AR) [2] = target: T2, Androgen Receptor (AR) (Homo sapiens, UniProt P10275); assay: Measurement of AR protein degradation in VCaP cells by Western blotting; type: cell-based; set-up: endogenous in cells; host or cells: VCaP; settings: VCaP, 20 h, read-out: AR degradation in VCaP cells (%)
T2 sequence (P10275 1-920): T1 sequence (P10275 1-920 T878A) with A878T
Procedure: as §1, §2, §3, §4, §5, §6, §7, §8, §9

Row | Structure (SMILES) | Dmax at 0.01 µM (Androgen Receptor (AR) [1]; LNCaP, 20 h) [%] | Dmax at 0.1 µM (Androgen Receptor (AR) [1]; LNCaP, 20 h) [%] | Dmax at 0.01 µM (Androgen Receptor (AR) [2]) [%] | Dmax at 0.1 µM (Androgen Receptor (AR) [2]) [%] | also measured
1 | N#Cc1ccc(N2CCC(C(=O)Nc3ccc(OC4CCN(C5CCN(c6ccc(NC7CCC(=O)NC7=O)cc6F)CC5)CC4)cn3)CC2)cc1C(F)(F)F (stereo not drawn) [Example 4, 1-(4-cyano-3-(trifluoromethyl)phenyl)-N-(5-((1'-(4-((2,6-dioxopiperidin-3-yl)amino)-2-fluorophenyl)-[1,4'-bipiperidin]-4-yl)oxy)pyridin-2-yl)piperidine-4-carboxamide] | 76 | 93 | – | – | –
2 | N#Cc1ncc(N2CCC(C(=O)Nc3ccc(OC4CCN(CC5CCN(c6ccc(NC7CCC(=O)NC7=O)cc6F)CC5)CC4)cn3)CC2)cc1C(F)(F)F (stereo not drawn) [Example 5, 1-(6-cyano-5-(trifluoromethyl)pyridin-3-yl)-N-(5-((1-((1-(4-((2,6-dioxopiperidin-3-yl)amino)-2-fluorophenyl)piperidin-4-yl)methyl)piperidin-4-yl)oxy)pyridin-2-yl)piperidine-4-carboxamide] | – | – | – | – | Dmax at 0.01 µM (Androgen Receptor (AR) [1]; 10 nM compound, 20 hours, LNCaP cells): 63%; Dmax at 0.1 µM (Androgen Receptor (AR) [1]; 100 nM compound, 20 hours, LNCaP cells): 97%
3 | N#Cc1ccc(N2CCN(C(=O)Nc3ccc(OC4CCN(CC5CCN(c6ccc(NC7CCC(=O)NC7=O)cc6F)CC5)CC4)cn3)CC2)cc1C(F)(F)F (stereo not drawn) [Example 6, 4-(4-cyano-3-(trifluoromethyl)phenyl)-N-(5-((1-((1-(4-((2,6-dioxopiperidin-3-yl)amino)-2-fluorophenyl)piperidin-4-yl)methyl)piperidin-4-yl)oxy)pyridin-2-yl)piperazine-1-carboxamide] | 84 | 99 | – | – | –
4 | N#Cc1ccc(N2CCC(C(=O)Nc3ccc(OC4CCN(CC5CCN(c6ccc(NC7CCC(=O)NC7=O)cc6F)CC5)CC4)cn3)CC2)c(F)c1C(F)(F)F (stereo not drawn) [Example 11, 1-(4-cyano-2-fluoro-3-(trifluoromethyl)phenyl)-N-(5-((1-((1-(4-((2,6-dioxopiperidin-3-yl)amino)-2-fluorophenyl)piperidin-4-yl)methyl)piperidin-4-yl)oxy)pyridin-2-yl)piperidine-4-carboxamide] | – | – | 89 | 99 | –
5 | N#Cc1ccc(N2CCC(C(=O)Nc3ccc(OC4CCN(CC5CCN(c6ccc(NC7CCC(=O)NC7=O)cc6F)CC5)CC4)nn3)CC2)c(F)c1C(F)(F)F (stereo not drawn) [Example 14, 1-(4-cyano-2-fluoro-3-(trifluoromethyl)phenyl)-N-(6-((1-((1-(4-((2,6-dioxopiperidin-3-yl)amino)-2-fluorophenyl)piperidin-4-yl)methyl)piperidin-4-yl)oxy)pyridazin-3-yl)piperidine-4-carboxamide] | – | – | 87 | 95 | –
6 | N#Cc1ccc(N2CCC(C(=O)Nc3ccc(OC4CCN(CC5CCN(c6ccc(NC7CCC(=O)NC7=O)cc6C(F)(F)F)CC5)CC4)cn3)CC2)cc1C(F)(F)F (stereo not drawn) [Example 18, 1-(4-cyano-3-(trifluoromethyl)phenyl)-N-(5-((1-((1-(4-((2,6-dioxopiperidin-3-yl)amino)-2-(trifluoromethyl)phenyl)piperidin-4-yl)methyl)piperidin-4-yl)oxy)pyridin-2-yl)piperidine-4-carboxamide] | 51 | 98 | – | – | –
